This note sets out measurements from patent US20230374015A1, “INHIBITORS OF FIBROBLAST GROWTH FACTOR RECEPTOR KINASES” (Kinnate Biopharma Inc., priority 2020, published 2023).

One may read the IC50 as the point on the concentration scale where inhibition reaches its midpoint. The low end stands for greater potency in that assay, the high end for weaker potency in that assay.

The target of experiment [1] is T1, FGFR2 (Homo sapiens, UniProt P21802). The experiment is described as follows: FGFR2 Kinase Protocol - Condition 1 (Reaction Biology HotSpot radiometric kinase assay). The experiment is classed as biochemical. As to conditions: 20-min incubation of compound with kinase before ATP; poly[Glu:Tyr] (4:1) 0.2 mg/ml; ATP 100 micromolar; 2 hr room temperature. As for the experimental part:
Example 1: FGFR2 Kinase Protocol—Condition 1
The Reaction Biology HotSpot assay platform (http://www.reactionbiology.com) was used to measure kinase/inhibitor interactions as described previously (Anastassiadis et al., 2011). In brief, for each reaction, kinase and substrate were mixed in a buffer containing 20 mM HEPES (pH 7.5), 10 mM MgCl2, 1 mM EGTA, 0.02% Brij35, 0.02 mg/mL BSA, 0.1 mM Na3VO4, 2 mM DTT, and 1% DMSO. All compounds were in powder form and freshly solubilized in DMSO for assays. Compounds were then added to each reaction mixture via acoustic dispense using an ECHO 550 nanoliter dispenser. For Human FGFR2 wildtype testing, a peptide substrate, poly[Glu:Tyr] (4:1) was used to promote the reaction at a concentration of 0.2 mg/ml. For Human FGFR2 (V564F) testing, a peptide substrate, poly[Glu:Tyr] (4:1) was used to promote the reaction at a concentration of 0.2 mg/ml. ATP concentration for all assays was maintained at 100 micromolar. Compounds were tested in 10-dose IC50 mode with a 3-fold serial dilution. After a 20-min incubation, ATP (Sigma-Aldrich, St. Louis, MO 63178) and [g33P] ATP (specific activity 10 microCi/microliter) purchased at PerkinElmer (Boston, MA, 02118 Cat #BLU 003H250UC) were added at a final total concentration of […]. Reactions were carried out at room temperature for 2 hr and spotted onto P81 ion exchange cellulose chromatography paper (Reaction Biology). Filter paper was washed in 0.75% phosphoric acid to remove unincorporated ATP. The percent remaining kinase activity relative to a vehicle-containing (DMSO) kinase reaction was calculated for each kinase/inhibitor pair. IC50 values were calculated using Dotmatics Knowledge Solutions Studies curve fitting (Dotmatics, Bishops Stortford, UK, CM23).

Experiment [2] addresses T1, FGFR2. The experiment is described as follows: FGFR2 Kinase Protocol - Condition 2 (Reaction Biology HotSpot radiometric kinase assay, no preincubation). The experiment is classed as biochemical. To be noted: poly[Glu:Tyr] (4:1) 0.2 mg/ml, ATP 100 microM, 2 hr room temperature. In short, it runs like this: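 Radiometric HotSpot format: FGFR2 (wildtype or V564F) with poly[Glu:Tyr] (4:1) at 0.2 mg/ml in HEPES pH 7.5 buffer with 1% DMSO; ATP plus [γ33P]ATP at 100 µM total, added without preincubation. Reactions ran 2 hr at room temperature, then filter-bound. IC50 from 10-dose, 3-fold series versus DMSO control.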

T1 sequence (P21802 22-821): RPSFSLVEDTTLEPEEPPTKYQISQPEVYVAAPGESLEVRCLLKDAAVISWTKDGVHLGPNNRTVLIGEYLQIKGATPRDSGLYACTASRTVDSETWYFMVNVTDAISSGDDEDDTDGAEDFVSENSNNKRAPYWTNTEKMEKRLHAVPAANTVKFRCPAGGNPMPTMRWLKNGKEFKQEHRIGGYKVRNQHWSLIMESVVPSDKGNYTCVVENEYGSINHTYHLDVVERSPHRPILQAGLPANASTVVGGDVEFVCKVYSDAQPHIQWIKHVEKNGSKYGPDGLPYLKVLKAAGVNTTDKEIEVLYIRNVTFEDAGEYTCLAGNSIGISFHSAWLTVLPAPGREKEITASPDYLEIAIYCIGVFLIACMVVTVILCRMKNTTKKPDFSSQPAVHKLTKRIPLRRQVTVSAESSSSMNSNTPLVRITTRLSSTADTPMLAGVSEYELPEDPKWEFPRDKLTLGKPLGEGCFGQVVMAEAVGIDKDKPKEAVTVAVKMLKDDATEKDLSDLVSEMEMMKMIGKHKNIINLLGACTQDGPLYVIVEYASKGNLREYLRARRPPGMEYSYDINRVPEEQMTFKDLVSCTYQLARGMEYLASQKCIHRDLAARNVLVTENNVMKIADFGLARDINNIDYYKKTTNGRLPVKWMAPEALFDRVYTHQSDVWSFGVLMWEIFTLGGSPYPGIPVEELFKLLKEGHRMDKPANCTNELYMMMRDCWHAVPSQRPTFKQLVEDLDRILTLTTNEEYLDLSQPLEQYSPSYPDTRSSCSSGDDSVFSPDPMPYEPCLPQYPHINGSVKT

For `C=CC(=O)N1C[C@@H](n2nc(C#Cc3ccc4c(c3)nc(C)n4C)c3c(N)ncnc32)C[C@@H]1COC` [Example 3, 1-((2R,4S)-4-(4-amino-3-((1,2-dimethyl-1H-benzo[d]imidazol-5-yl)ethynyl)-1H-pyrazolo[3,4-d]pyrimidin-1-yl)-2-(methoxymethyl)pyrrolidin-1-yl)prop-2-en-1-one], the IC50 against FGFR2 [1] and against FGFR2 [2] was no more than 100 nM in each case.
`C=CC(=O)N1C[C@@H](n2nc(C#Cc3c(F)cc4c(nc(C)n4C)c3F)c3c(N)ncnc32)C[C@@H]1COC` [Example 12, 1-((2R,4S)-4-(4-amino-3-((4,6-difluoro-1,2-dimethyl-1H-benzo[d]imidazol-5-yl)ethynyl)-1H-pyrazolo[3,4-d]pyrimidin-1-yl)-2-(methoxymethyl)pyrrolidin-1-yl)prop-2-en-1-one]: the IC50 at FGFR2 [1] and on FGFR2 [2] was no more than 100 nM in each case.
For `C=CC(=O)N1C[C@@H](n2nc(C#Cc3c(F)cc4c(nc(C)n4C)c3F)c3c(N)nccc32)C[C@@H]1COC` [Example 16, 1-((2R,4S)-4-(4-amino-3-((4,6-difluoro-1,2-dimethyl-1H-benzo[d]imidazol-5-yl)ethynyl)-1H-pyrazolo[4,3-c]pyridin-1-yl)-2-(methoxymethyl)pyrrolidin-1-yl)prop-2-en-1-one], the IC50 at FGFR2 [1] and at FGFR2 [2] was no more than 100 nM each time.
`C=CC(=O)N1C[C@@H](n2nc(C#Cc3c(F)cc4c(ncn4C)c3F)c3c(N)nccc32)C[C@@H]1COC` [Example 26, 1-((2R,4S)-4-(4-amino-3-((4,6-difluoro-1-methyl-1H-benzo[d]imidazol-5-yl)ethynyl)-1H-pyrazolo[4,3-c]pyridin-1-yl)-2-(methoxymethyl)pyrrolidin-1-yl)prop-2-en-1-one]: at FGFR2 [1], the IC50 was no more than 100 nM.
The compound `C=CC(=O)N1C[C@@H](n2cc(C#Cc3ccc4c(c3)ncn4C)c3c(N)nccc32)C[C@@H]1COC` [Example 27, 1-((2R,4S)-4-(4-amino-3-((1-methyl-1H-benzo[d]imidazol-5-yl)ethynyl)-1H-pyrrolo[3,2-c]pyridin-1-yl)-2-(methoxymethyl)pyrrolidin-1-yl)prop-2-en-1-one] displayed an IC50 against FGFR2 [1] of no more than 100 nM.
For `C=CC(=O)N1C[C@@H](n2cc(C#Cc3ccc4nc(C)n(C)c4c3)c3c(N)nccc32)C[C@@H]1COC` [Example 28], the IC50 at FGFR2 [1] and on FGFR2 [2] was 1000 to 10000 nM throughout.
As for `C=CC(=O)N1C[C@@H](n2cc(C#Cc3ccc4c(c3)nc(C)n4C)c3c(N)nccc32)C[C@@H]1COC` [Example 29, 1-((2R,4S)-4-(4-amino-3-((1,2-dimethyl-1H-benzo[d]imidazol-5-yl)ethynyl)-1H-pyrrolo[3,2-c]pyridin-1-yl)-2-(methoxymethyl)pyrrolidin-1-yl)prop-2-en-1-one], the IC50 on FGFR2 [1] was no more than 100 nM; at FGFR2 [2], 100 to 1000 nM.
Regarding `C=CC(=O)N1C[C@@H](n2cc(C#Cc3ccc4c(c3)ncn4C3CC3)c3c(N)nccc32)C[C@@H]1COC` [Example 30, 1-((2R,4S)-4-(4-amino-3-((1-cyclopropyl-1H-benzo[d]imidazol-5-yl)ethynyl)-1H-pyrrolo[3,2-c]pyridin-1-yl)-2-(methoxymethyl)pyrrolidin-1-yl)prop-2-en-1-one], the IC50 was no more than 100 nM on FGFR2 [1] and 100 to 1000 nM at FGFR2 [2].
On to `C=CC(=O)N1C[C@@H](n2cc(C#Cc3ccc4c(c3)ncn4CC)c3c(N)nccc32)C[C@@H]1COC` [Example 31, 1-((2R,4S)-4-(4-amino-3-((1-ethyl-1H-benzo[d]imidazol-5-yl)ethynyl)-1H-pyrrolo[3,2-c]pyridin-1-yl)-2-(methoxymethyl)pyrrolidin-1-yl)prop-2-en-1-one], for which the IC50 at FGFR2 [1] was no more than 100 nM; against FGFR2 [2] it was 100 to 1000 nM.
